The values that follow come from patent US7763656B2, “Use of Acetylamino benzoic acid compounds for nonsense suppression and the treatment of disease” (PTC Therapeutics, Inc., priority 2002, dated 2010).

“And” between values parts separate entries of the source, which are not always exact repeats. Equal entries are not always repeated.

For the compound `Cc1ccc(OCC(=O)Nc2cccc(C(=O)O)c2)cc1C` [Compound 1, 3-[2-(3,4-dimethyl-phenoxy)-acetylamino]-benzoic acid], the melting point (as a rule, the temperature, or range, at which the solid turns liquid) is 201 to 202 °C.
Next, `CC(C)c1ccccc1SCC(=O)Nc1cccc(C(=O)O)c1` [Compound 3, 3-[2-(2-isopropyl-phenylsulfanyl)-acetylamino]-benzoic acid]: 178 to 179 °C.
Next, `Cc1cc(OCC(=O)Nc2cccc(C(=O)O)c2)ccc1C(C)C` [Compound 4, 3-[2-(4-isopropyl-3-methyl-phenoxy)-acetylamino]-benzoic acid]: 191 to 192 °C and 188 to 189 °C.
To `Cc1cc(OCC(=O)Nc2cccc(C(=O)O)c2)cc(C(C)C)c1` [Compound 5, 3-[2-(3-isopropyl-5-methyl-phenoxy)-acetylamino]-benzoic acid] belongs 183 to 184 °C; to `CC(C)c1cccc(OCC(=O)Nc2cccc(C(=O)O)c2)c1` [Compound 6, 3-[2-(3-isopropyl-phenoxy)-acetylamino]-benzoic acid], 166 to 167 °C; to `CC(C)c1ccc(OCC(=O)Nc2cccc(C(=O)O)c2)cc1` [Compound 7, 3-[2-(4-isopropyl-phenoxy)-acetylamino]-benzoic acid], 171 to 174 °C.
As for `Cc1cc(OCC(=S)Nc2cccc(C(=O)O)c2)ccc1C(C)C` [Compound 8, 3-[2-(4-isopropyl-3-methyl-phenoxy)-thioacetylamino]-benzoic acid], the melting point was 174 to 176 °C and 174 to 175 °C.
Next, `Cc1ccccc1-c1ccc(OCC(=O)Nc2cccc(C(=O)O)c2)cc1` [Compound 9, 3-[2-(2’-methyl-biphen-4-yloxy)-acetylamino]-benzoic acid]: 220 to 221 °C; `Cc1cccc(-c2ccc(OCC(=O)Nc3cccc(C(=O)O)c3)cc2)c1` [Compound 10, 3-[2-(3’-methyl-biphen-4-yloxy)-acetylamino]-benzoic acid]: 225 to 226 °C; `O=C(COc1ccc(Cl)c(Cl)c1)Nc1cccc(C(=O)O)c1` [Compound 12, 3-[2-(3,4-dichlorophenoxy)-acetylamino]-benzoic acid]: 219 to 221 °C.
To `O=C(COc1ccc(-c2ccccc2)cc1)Nc1cccc(C(=O)O)c1` [Compound 13, 3-[2-(biphen-4-yloxy)-acetylamino]-benzoic acid] belongs 245 to 246 °C; to `CCC(C)(C)c1ccc(OCC(=O)Nc2cccc(C(=O)O)c2)cc1` [Compound 15, 3-{2-[4-(1,1-dimethyl-propyl)-phenoxy]acetylamino)-benzoic acid], 164 to 165 °C; to `CCCc1ccc(OCC(=O)Nc2cccc(C(=O)O)c2)cc1` [Compound 16, 3-[2-(4-propyl-phenoxy)-acetylamino]-benzoic acid], 185 to 186 °C.
To `CCc1ccc(OCC(=O)Nc2cccc(C(=O)O)c2)cc1` [Compound 18, 3-[2-(4-ethyl-phenoxy)-acetylamino]-benzoic acid] belongs 209 to 211 °C; to `O=C(COc1ccc2c(c1)CCC2)Nc1cccc(C(=O)O)c1` [Compound 19, 3-[2-(indan-5-yloxy)-acetylamino]-benzoic acid], 203 to 204 °C; to `O=C(COc1ccc2c(c1)CCCC2)Nc1cccc(C(=O)O)c1` [Compound 20, 3-[2-(5,6,7,8-tetrahydro-naphthalen-2-yloxy)-acetylamino]-benzoic acid], 199 to 201 °C.
With `CC(C)(c1ccccc1)c1ccc(OCC(=O)Nc2cccc(C(=O)O)c2)cc1` [Compound 22, 3-{2-[4-(1-methyl-1-phenyl-ethyl)-phenoxy]-acetylamino}-benzoic acid], the melting point was 207 to 208 °C.
Next, `O=C(COc1ccc(C2CCCC2)cc1)Nc1cccc(C(=O)O)c1` [Compound 24, 3-[2-(4-cyclopentyl-phenoxy)-acetylamino]-benzoic acid]: 212 to 213 °C; `Cc1cc(OCC(=O)Nc2cccc(C(=O)O)c2)ccc1Cl` [Compound 25, 3-[2-(4-chloro-3-methyl-phenoxy)-acetylamino]-benzoic acid]: 197 to 198 °C.
`CCOc1ccc(OCC(=O)Nc2cccc(C(=O)O)c2)cc1` [Compound 27, 3-[2-(4-ethoxy-phenoxy)-acetylamino]-benzoic acid] registered a melting point of 191 to 192 °C.
Next, `O=C(COc1ccc(C#Cc2ccccc2)cc1)Nc1cccc(C(=O)O)c1` [Compound 28, 3-[2-(4-phenylethynyl-phenoxy)-acetylamino]-benzoic acid]: 242 to 244 °C; `CC(C)c1ccc(C(=O)CC(=O)Nc2cccc(C(=O)O)c2)cc1` [Compound 29, 3-[3-(4-isopropyl-phenyl)-3-oxo-propionylamino]-benzoic acid]: 262 to 263 °C.
Next, `Cc1cc(OCC(=O)Nc2cccc(C(=O)O)c2Cl)ccc1C(C)C` [Compound 30, 2-chloro-3-[2-(4-isopropyl-3-methyl-phenoxy)-acetylamino]-benzoic acid]: 161 to 162 °C; `Cc1cc(OCC(=O)Nc2cc(C(=O)O)ccc2Cl)ccc1C(C)C` [Compound 31, 4-chloro-3-[2-(4-isopropyl-3-methyl-phenoxy)-acetylamino]-benzoic acid]: 218 to 220 °C; `O=C(COc1ccc(C(=O)c2ccccc2)cc1)Nc1cccc(C(=O)O)c1` [Compound 32, 3-[2-(4-benzoyl-phenoxy)-acetylamino]-benzoic acid]: 208 to 210 °C.
Next, `CC(C)c1ccc(OC2CCN(c3cccc(C(=O)O)c3)C2=O)cc1` (centres unmarked) [Compound 33, 3-[3-(4-Isopropyl-phenoxy)-2-oxo-pyrrolidin-1-yl]-benzoic acid]: 210 to 211 °C.
Compound `CC(C)c1ccc(OC2CCN(c3cccc(C(=O)[O-])c3)C2=O)cc1.[Na+]` (centres unmarked) [Compound 34, 3-[3-(4-Isopropyl-phenoxy)-2-oxo-pyrrolidin-1-yl]-benzoic acid Sodium Salt] came in with a melting point of 164 to 165 °C.
To `O=C(O)c1cccc(N2CCC(Oc3ccc4c(c3)CCC4)C2=O)c1` (centres unmarked) [Compound 35, 3-[3-(Indan-5-yloxy)-2-oxo-pyrrolidin-1-yl]-benzoic acid] belongs 182 to 184 °C.
Turning to `O=C(O)c1cccc(N2CCC(Oc3ccc4c(c3)OCO4)C2=O)c1` (centres unmarked) [Compound 36, 3-[3-(Benzo[1,3]dioxol-5-yloxy)-2-oxo-pyrrolidin-1-yl]-benzoic acid], the melting point was in the range of 194 to 197 °C.
To `O=C(O)c1cccc(N2CCC(Oc3ccc(Oc4ccc(C(F)(F)F)cc4)cc3)C2=O)c1` (centres unmarked) [Compound 37, 3{2-Oxo-3-[4-(4-trifluoromethyl-phenoxy)-phenoxy]-pyrrolidin-1-yl}-benzoic acid] belongs 175 to 178 °C.
Next, `CCc1cccc(OC2CCN(c3cccc(C(=O)O)c3)C2=O)c1` (centres unmarked) [Compound 38]: 150 to 152 °C.
For `O=C(O)c1cccc(N2CCC(Oc3ccc(Oc4ccccc4)cc3)C2=O)c1` (centres unmarked) [Compound 39, 3-[2-Oxo-3-(4-phenoxy-phenoxy)-pyrrolidin-1-yl]-benzoic acid], the melting point is 185 to 187 °C.
